# Measurements from ChEMBL document CHEMBL3627608, “Crystal structures of human RIP2 kinase catalytic domain complexed with ATP-competitive inhibitors: Foundations for understanding inhibitor selectivity” (Bioorg Med Chem, 2015).
# How the values were obtained:
# [1] = biological target: Serine/threonine-protein kinase WNK2 (Homo sapiens) (UniProt Q9Y3S1); test: Inhibition of WNK2 (unknown origin) at 10 uM after 120 mins P33 radiolabeled kinase activity assay
# [2] = biological target: Mitogen-activated protein kinase 8 (Homo sapiens) (UniProt P45983); test: Inhibition of JNK1 (unknown origin) at 10 uM after 120 mins P33 radiolabeled kinase activity assay
# Mitogen-activated protein kinase 8 (Homo sapiens), sequence (P45983 whole entry): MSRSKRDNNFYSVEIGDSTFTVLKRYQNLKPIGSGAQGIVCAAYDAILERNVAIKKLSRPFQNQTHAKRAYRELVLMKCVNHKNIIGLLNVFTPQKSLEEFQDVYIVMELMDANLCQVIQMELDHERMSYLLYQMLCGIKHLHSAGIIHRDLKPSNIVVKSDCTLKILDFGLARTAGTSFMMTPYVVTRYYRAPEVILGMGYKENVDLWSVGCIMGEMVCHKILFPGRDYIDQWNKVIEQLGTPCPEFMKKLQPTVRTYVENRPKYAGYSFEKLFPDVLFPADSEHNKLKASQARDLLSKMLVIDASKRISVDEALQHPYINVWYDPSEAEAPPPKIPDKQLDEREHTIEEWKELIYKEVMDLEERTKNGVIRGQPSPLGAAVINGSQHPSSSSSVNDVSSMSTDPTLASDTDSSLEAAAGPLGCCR
# [3] = biological target: Cyclin-dependent kinase 7/ cyclin H (Homo sapiens) (UniProt P51946+P50613); test: Inhibition of CDK7/cyclin H (unknown origin) at 10 uM after 120 mins P33 radiolabeled kinase activity assay; format: protein-complex assay
# [4] = biological target: Vascular endothelial growth factor receptor 1 (Homo sapiens) (UniProt P17948); test: Inhibition of FLT1 (unknown origin) at 10 uM after 120 mins P33 radiolabeled kinase activity assay
# Vascular endothelial growth factor receptor 1 (Homo sapiens), sequence (P17948 whole entry): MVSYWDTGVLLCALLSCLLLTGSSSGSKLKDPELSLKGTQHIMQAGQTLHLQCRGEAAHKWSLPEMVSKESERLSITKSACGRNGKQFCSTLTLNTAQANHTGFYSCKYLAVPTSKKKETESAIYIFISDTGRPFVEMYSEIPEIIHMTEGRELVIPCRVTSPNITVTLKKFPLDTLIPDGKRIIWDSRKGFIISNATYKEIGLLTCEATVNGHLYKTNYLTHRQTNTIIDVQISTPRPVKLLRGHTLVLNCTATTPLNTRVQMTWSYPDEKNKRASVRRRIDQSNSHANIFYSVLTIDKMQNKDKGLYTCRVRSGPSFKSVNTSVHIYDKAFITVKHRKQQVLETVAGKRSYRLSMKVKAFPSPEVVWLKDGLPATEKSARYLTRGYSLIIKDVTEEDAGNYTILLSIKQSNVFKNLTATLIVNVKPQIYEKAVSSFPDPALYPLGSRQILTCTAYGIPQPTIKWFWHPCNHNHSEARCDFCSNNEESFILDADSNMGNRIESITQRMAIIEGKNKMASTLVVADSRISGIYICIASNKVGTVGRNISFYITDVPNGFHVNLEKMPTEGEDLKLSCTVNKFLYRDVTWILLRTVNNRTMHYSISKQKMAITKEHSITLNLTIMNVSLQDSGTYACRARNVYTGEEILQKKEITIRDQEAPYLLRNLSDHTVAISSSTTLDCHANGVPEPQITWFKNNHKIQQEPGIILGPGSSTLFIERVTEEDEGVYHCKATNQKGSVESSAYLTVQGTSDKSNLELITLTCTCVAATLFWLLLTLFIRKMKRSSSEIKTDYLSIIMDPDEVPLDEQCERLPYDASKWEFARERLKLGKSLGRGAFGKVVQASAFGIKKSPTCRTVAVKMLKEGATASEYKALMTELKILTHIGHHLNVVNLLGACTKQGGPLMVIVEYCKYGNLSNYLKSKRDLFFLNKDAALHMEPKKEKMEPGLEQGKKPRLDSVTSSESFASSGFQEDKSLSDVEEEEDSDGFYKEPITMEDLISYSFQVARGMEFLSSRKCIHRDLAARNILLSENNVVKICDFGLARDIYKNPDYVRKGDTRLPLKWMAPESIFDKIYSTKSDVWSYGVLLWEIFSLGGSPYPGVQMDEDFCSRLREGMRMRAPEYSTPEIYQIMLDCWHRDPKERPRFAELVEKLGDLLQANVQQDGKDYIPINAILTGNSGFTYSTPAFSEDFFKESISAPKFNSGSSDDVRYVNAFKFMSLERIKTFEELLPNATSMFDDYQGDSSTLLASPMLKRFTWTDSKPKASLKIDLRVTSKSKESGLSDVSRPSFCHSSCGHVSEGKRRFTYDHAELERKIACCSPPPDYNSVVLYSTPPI
# [5] = biological target: T1, Tyrosine-protein kinase ZAP-70 (Homo sapiens) (UniProt P43403); test: Inhibition of ZAP70 (unknown origin) at 10 uM after 120 mins P33 radiolabeled kinase activity assay
# T1 sequence (whole entry): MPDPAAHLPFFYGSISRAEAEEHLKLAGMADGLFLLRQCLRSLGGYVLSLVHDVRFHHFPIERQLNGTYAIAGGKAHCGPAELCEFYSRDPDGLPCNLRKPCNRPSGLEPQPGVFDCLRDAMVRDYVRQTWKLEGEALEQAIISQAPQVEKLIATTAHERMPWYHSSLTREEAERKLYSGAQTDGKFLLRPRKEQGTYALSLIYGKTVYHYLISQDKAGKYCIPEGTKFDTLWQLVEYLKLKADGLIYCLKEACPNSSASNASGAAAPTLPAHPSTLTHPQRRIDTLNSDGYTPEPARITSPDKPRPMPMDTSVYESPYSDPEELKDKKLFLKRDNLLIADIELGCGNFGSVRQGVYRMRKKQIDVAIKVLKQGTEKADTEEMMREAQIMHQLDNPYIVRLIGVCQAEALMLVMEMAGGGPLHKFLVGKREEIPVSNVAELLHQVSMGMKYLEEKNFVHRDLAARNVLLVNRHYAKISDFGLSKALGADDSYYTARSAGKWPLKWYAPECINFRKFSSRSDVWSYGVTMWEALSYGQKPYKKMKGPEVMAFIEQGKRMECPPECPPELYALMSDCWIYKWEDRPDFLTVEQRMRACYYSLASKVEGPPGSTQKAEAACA
# [6] = biological target: T2, Serine/threonine-protein kinase ULK2 (Homo sapiens) (UniProt Q8IYT8); test: Inhibition of ULK2 (unknown origin) at 10 uM after 120 mins P33 radiolabeled kinase activity assay
# T2 sequence (whole entry): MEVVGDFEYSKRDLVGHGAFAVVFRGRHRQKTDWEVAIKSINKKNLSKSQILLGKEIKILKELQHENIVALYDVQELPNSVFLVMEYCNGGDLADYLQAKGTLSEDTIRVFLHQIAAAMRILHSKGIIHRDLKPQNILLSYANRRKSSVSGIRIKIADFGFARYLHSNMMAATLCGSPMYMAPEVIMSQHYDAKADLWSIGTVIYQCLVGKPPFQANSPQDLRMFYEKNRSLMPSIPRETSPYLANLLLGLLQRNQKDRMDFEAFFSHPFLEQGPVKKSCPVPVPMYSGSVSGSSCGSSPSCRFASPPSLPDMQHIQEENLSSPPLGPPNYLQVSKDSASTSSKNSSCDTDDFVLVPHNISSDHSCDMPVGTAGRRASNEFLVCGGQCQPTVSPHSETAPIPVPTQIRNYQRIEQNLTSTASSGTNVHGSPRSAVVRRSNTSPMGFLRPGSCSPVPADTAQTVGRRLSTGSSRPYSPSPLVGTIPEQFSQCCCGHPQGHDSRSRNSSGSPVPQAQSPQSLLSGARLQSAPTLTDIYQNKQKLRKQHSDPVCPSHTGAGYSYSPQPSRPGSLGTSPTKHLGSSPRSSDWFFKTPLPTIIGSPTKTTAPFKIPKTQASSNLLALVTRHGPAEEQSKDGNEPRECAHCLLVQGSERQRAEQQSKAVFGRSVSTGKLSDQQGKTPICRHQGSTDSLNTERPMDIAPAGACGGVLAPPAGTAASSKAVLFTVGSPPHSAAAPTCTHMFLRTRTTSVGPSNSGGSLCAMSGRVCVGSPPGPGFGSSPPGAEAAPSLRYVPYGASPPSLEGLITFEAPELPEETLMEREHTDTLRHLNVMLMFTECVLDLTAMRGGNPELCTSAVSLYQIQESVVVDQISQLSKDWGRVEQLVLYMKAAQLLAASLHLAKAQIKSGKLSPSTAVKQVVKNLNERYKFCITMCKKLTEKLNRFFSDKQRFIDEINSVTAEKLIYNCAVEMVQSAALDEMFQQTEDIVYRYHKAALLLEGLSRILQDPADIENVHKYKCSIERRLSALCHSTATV
# [7] = biological target: Inactive tyrosine-protein kinase PEAK1 (Homo sapiens) (UniProt Q9H792); test: Inhibition of PEAK1 (unknown origin) at 10 uM after 120 mins P33 radiolabeled kinase activity assay
# Serine/threonine-protein kinase WNK2 (Homo sapiens), sequence (Q9Y3S1 whole entry): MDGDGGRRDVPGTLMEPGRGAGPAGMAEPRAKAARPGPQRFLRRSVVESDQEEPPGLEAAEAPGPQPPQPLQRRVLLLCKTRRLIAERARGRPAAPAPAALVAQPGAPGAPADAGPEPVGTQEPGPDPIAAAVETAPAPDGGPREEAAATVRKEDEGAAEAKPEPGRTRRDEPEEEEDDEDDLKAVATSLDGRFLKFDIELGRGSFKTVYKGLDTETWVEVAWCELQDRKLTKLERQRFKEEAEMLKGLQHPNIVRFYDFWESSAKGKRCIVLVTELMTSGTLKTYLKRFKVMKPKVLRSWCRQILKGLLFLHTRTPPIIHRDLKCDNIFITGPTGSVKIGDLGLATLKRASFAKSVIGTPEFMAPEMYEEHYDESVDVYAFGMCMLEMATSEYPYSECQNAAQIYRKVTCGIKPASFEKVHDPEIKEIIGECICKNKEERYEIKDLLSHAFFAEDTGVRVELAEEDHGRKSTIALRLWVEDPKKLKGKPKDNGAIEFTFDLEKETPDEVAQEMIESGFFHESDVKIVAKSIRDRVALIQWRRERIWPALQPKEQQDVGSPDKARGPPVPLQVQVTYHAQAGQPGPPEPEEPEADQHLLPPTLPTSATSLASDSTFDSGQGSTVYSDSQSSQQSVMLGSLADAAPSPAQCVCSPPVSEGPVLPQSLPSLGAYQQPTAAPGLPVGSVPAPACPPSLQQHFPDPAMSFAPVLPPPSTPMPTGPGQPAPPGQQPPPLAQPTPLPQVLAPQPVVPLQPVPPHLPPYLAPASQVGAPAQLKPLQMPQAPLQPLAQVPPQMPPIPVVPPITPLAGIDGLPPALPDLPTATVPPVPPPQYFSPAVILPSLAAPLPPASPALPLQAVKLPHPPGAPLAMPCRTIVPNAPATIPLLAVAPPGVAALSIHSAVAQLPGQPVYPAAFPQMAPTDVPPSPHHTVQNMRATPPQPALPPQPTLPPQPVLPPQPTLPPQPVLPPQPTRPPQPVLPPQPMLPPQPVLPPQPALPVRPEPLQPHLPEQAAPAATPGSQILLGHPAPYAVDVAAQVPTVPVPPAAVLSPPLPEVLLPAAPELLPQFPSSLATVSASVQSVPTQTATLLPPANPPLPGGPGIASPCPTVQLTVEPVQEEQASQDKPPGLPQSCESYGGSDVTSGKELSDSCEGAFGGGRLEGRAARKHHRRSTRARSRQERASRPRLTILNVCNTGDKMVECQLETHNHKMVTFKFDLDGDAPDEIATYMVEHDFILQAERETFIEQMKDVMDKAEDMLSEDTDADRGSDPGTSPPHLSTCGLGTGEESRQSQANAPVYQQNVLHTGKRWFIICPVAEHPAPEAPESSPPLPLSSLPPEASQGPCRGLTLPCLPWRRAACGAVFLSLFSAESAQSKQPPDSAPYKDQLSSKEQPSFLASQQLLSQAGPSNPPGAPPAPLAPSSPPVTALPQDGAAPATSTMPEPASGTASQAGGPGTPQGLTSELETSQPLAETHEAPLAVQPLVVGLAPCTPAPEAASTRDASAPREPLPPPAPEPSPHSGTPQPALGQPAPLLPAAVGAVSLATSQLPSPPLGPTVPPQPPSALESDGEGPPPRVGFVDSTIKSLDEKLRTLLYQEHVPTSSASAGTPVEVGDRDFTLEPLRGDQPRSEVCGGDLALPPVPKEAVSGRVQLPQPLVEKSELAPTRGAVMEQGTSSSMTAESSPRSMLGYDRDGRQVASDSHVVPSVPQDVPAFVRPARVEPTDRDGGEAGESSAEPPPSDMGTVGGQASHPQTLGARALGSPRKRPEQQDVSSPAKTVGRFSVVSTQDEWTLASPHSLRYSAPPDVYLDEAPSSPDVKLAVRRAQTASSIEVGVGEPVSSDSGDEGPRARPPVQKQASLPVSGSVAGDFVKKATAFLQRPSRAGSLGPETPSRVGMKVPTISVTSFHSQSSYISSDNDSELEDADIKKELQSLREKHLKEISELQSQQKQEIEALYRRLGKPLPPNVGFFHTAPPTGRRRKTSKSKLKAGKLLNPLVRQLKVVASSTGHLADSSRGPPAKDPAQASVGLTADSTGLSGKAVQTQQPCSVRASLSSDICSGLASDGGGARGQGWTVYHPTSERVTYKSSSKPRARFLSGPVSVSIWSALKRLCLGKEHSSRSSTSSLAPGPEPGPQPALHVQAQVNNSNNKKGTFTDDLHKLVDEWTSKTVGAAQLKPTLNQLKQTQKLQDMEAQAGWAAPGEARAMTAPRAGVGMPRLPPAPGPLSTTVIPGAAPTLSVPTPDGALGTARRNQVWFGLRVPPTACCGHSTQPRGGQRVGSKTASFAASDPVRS
inhibition [1] [%],inhibition [2] [%],inhibition [3] [%],inhibition [4] [%],inhibition [5] [%],inhibition [6] [%],inhibition [7] [%],SMILES
43,31.4,16.1,98,-0.68,17,100,CS(=O)(=O)c1cccc(Nc2nccc(-c3sc(N4CCOCC4)nc3-c3cccc(NS(=O)(=O)c4c(F)cccc4F)c3)n2)c1
3.46,2.55,2.11,0.33,0.28,-2.46,82.8,COCCNC(=O)c1ccc2c(c1)nc(-c1cnc(-c3ccc(Cl)cc3)[nH]1)n2CCOC
3.16,14.2,0.59,97.5,-5.86,-6.09,86.1,CC(C)(C)c1cc(NC(=O)Nc2ccc(Oc3ccncc3)cc2)no1
